What all share (type): cell-based
Assay [1] deals with ovarian cancer cells. Description: Summary of cell viability, ovarian cancer cells. The following applies: 72 hours, read-out: Inhibitory effect. The procedure:
(§1) The cell numbers were counted and reseed as 2×10^6 in culture plate/flask. Then, the culture medium were added to a volume of 10 ml, and the cells were cultured for 2-3 days. Then, the cells were suspended for loading into 96-well plates. The number of cells was 3000 and the volume of the culture medium was 100 μl each well.
(§2) Removing the original culture medium from 96-well plate. Then add 100 μl of commercially drug at a concentration of 10 μM per well. After 72 hours, add the diluted WST-1 reagent to the well with 100 μl/well, and the diluted WST-1 reagent was acquired from the dilution of 9:1 medium and WST-1 stock reagent. Finally, the total volume of each well was 200 μl/well. Culture the 96-well plate at 37° C. for 30 to 90 minutes. Detecting and calculate the survival rate of each cancer cells with an ELISA reader at OD450 nm. The lower viability of cancer cells represents better inhibition effect via the Cinacalcet HCl drug. Otherwise, the higher viability of cancer cells represents worse inhibition effect via the Cinacalcet HCl drug.
(§3) Cinacalcet HCl is having different inhibitory effect on different tumor cell type even in the same cancer. […] (FIG. 1)

Assay [2] relates to PC-3. The experiment in a line: Cell viability analysis (WST-1), PC-3. As to conditions: Homo sapiens, read-out: survival rate (viability) of cells. The method, then:
as §1, §2
(§4) This inhibition test of Cinacalcet HCl on endocrine-related cancer cells were using prostate cancer cell lines PC-3 and LNCap (Table 6), breast cancer cell lines MCF7 and MDA-MB-231 (Table 7), and ovarian cancer cell lines NIH-OVCAR-3 and TOV-21G (Table 8). The inhibitory tests of Cinacalcet HCl were performed 4 times for each cell lines and then the average value of the inhibitory tests was calculated.
(In general: Formazan colour is commonly taken as a measure of viable cells.)

For assay [3], the system named is HepG2. The experiment in a line: Cell viability analysis (WST-1), HepG2. As to conditions: Homo sapiens, read-out: survival rate (viability) of cells. The procedure: as §1, §2
This inhibition test of Cinacalcet HCl on gastrointestinal tract-related cancer cells were using gastric cancer cell lines AGS and MKN-45 (Table 9), hepatic cancer cell lines HepG2 and Hep3B (Table 10), colorectal cancer cell lines HCT116-wt and LoVo (Table 11), pancreatic cancer cell line AsPC-1 and BxPC-3(Table 12), tongue cancer cell line SAS (Table 13). The inhibitory tests of Cinacalcet HCl were performed 4 times for each cell lines and then the average value of the inhibitory tests was calculated.

Assay [4] has as its system C-33A. The experiment in a line: Cell viability analysis (WST-1), C-33A. The following applies: Homo sapiens, read-out: survival rate (viability) of cells. The procedure:
as §1, §2
This inhibition test of Cinacalcet HCl on abdominal-related cancer cells were using bladder cancer cell line TSGH and T24 (Table 3), cervical cancer cell lines HeLa and C-33A (Table 4), renal cancer cell line 786-O (Table 5). The inhibitory tests of Cinacalcet HCl were performed 4 times for each cell lines and then the average value of the inhibitory tests was calculated.

Assay [5] relates to cervical cancer cells. Description: Summary of cell viability, cervical cancer cells. As to conditions: 72 hours, read-out: Inhibitory effect. The procedure: as §1, §2, §3
Assay [6] has as its system LNCap. The experiment in a line: Cell viability analysis (WST-1), LNCap. The following applies: Homo sapiens, 72 hours, Average of tests, read-out: survival rate (viability) of cells. The procedure:
as §1
as §2, with “Otherwise, the higher viability of cancer cells represents worse inhibition effect via the Cinacalcet HCl drug.” left out
as §4

From patent US20170304228A1, “NEW INDICATION OF CINACALCET HCL PHARMACEUTICAL COMPOSITION FOR TREATING CANCER” (LAUNX BIOMEDICAL CO., LTD., priority 2014, published 2017) come the findings set out here.

SMILES strings stand for the structures. Counter-ions that a name gives are not always drawn. Like-named read-outs stand apart in the source and are kept apart here.

For the compound `C[C@@H](NCCCc1cccc(C(F)(F)F)c1)c1cccc2ccccc12` [Cinacalcet HCl, Cinacalcet hydrochloride], the viability at 10 µM in assay [1] turned out to be 58.7%; in assay [2] (PC-3, 10 μM, 72 hours, test PC-3-0524-10 min), 103%; in assay [2] (PC-3, 10 μM, 72 hours, test PC-3-0526-10 min), 132%; in assay [2] (PC-3, 10 μM, 72 hours, test PC-3-0529-10 min), 120%; in assay [2] (PC-3, 10 μM, 72 hours, test PC-3-0531-10 min) it was 135%; in assay [2] (PC-3, 72 h, 10 μM, average of tests), 122%. Also, the viability at 10 µM was 106% in assay [3] (HepG2, 10 μM, 72 hours, test 0524-20 min); 133% in assay [3] (HepG2, 10 μM, 72 hours, test 0526-20 min); 116% in assay [3] (HepG2, 10 μM, 72 hours, test 0529-20 min); 89.5% in assay [3] (HepG2, 10 μM, 72 hours, test 0531-20 min); 111% in assay [3] (HepG2, 72 h, 10 μM, average of tests); 110% in assay [4] (72 h, average of tests). Moreover, the viability at 10 µM was 114% in assay [4] (72 hours, test 0524-10 min); 119% in assay [4] (72 hours, test 0526-10 min); 108% in assay [4] (72 hours, test 0529-10 min); 100% in assay [4] (72 hours, test 0531-10 min); 111% in assay [5]; 52.6% in assay [6].
